Test results published in ChEMBL document CHEMBL1144400 (J Med Chem, 2005).

molecular target: Coagulation factor X (Homo sapiens, UniProt P00742); assay: Binding affinity for human factor Xa
Sequence (P00742 41-179 limits assumed): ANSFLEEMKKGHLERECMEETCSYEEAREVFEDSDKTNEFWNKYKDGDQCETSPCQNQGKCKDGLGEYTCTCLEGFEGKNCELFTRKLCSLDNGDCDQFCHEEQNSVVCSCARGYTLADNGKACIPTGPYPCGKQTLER
Sequence (P00742 235-488 limits assumed): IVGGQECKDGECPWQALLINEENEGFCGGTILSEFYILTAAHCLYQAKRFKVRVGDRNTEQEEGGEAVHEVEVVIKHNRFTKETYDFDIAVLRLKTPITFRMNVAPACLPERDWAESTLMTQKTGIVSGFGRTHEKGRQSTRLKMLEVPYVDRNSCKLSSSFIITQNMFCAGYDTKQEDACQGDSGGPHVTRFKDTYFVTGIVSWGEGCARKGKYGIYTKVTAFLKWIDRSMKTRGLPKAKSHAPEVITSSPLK

Ki [nM] | Compound
1 | Cc1ccc(C)c2c1cc(C(=O)NC1CCN(C(C)C)CC1)n2Cc1cc(-c2ccc(Cl)s2)on1
7 | CC(C)N1CCC(NC(=O)c2cc3c(Cl)cccc3n2Cc2cc(-c3ccc(Cl)s3)on2)CC1
3 | Cc1c(C(=O)NC2CCN(C(C)C)CC2)n(Cc2cc(-c3ccc(Cl)s3)on2)c2ccccc12
0.07 | Cc1cccc2c(C#N)c(C(=O)NC3CCN(C(C)C)CC3)n(Cc3cc(-c4ccc(Cl)s4)on3)c12
3 | CC(C)N1CCC(NC(=O)c2cc3cc(F)ccc3n2Cc2cc(-c3ccc(Cl)s3)on2)CC1
7 | CC(C)N1CCC(NC(=O)c2c(C#N)c3cc(S(C)(=O)=O)ccc3n2Cc2cc(-c3ccc(Cl)s3)on2)CC1

Continued, compound first:

Compound | Ki [nM]
CC(C)N1CCC(NC(=O)c2c(C#N)c3ccccc3n2Cc2cc(-c3ccc(Cl)s3)on2)CC1 | 0.3
CC(C)N1CCC(NC(=O)c2cc3cccc(Cl)c3n2Cc2cc(-c3ccc(Cl)s3)on2)CC1 | 0.7
Cc1cccc2c(C#N)c(C(=O)NC3CCN(C(C)C)CC3)n(CC(=O)Nc3ccc(Cl)cc3)c12 | 26
Cc1cccc2c1cc(C(=O)NC1CCN(C(C)C)CC1)n2CC(=O)Nc1ccc(C(=N)N)cc1 | 25
CC(C)N1CCC(NC(=O)c2cc3cc(Br)ccc3n2Cc2cc(-c3ccc(Cl)s3)on2)CC1 | 9
Cc1ccc2cc(C(=O)NC3CCN(C(C)C)CC3)n(Cc3cc(-c4ccc(Cl)s4)on3)c2c1 | 18
COc1cccc(Cn2c(C(=O)NC3CCN(C(C)C)CC3)c(C#N)c3cccc(C)c32)c1 | 406
CC(C)N1CCC(NC(=O)c2cc3cccc([N+](=O)[O-])c3n2Cc2cc(-c3cc(Cl)cs3)on2)CC1 | 0.1
Cc1cccc2cc(C(=O)NC3CCN(C(C)C)CC3)n(CC(=O)Nc3ccc(Cl)cc3)c12 | 3
